Measurements: PubChem BioAssay (NCI)
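Values below derive from 48-hour exposures of cells grown in 96-well plates, with endpoints linearly interpolated between the two concentrations bracketing the appropriate inhibition level. GI50 = concentration required for 50% inhibition of growth. At the TGI there is no net growth.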

How the values were obtained:
Assay in all cases: NCI anticancer screen, dose series, 48 h; in the data active = GI50 below about 0.43 µM; inactive = the rest
[1] = test system: NCI-H23 lung
[2] = test system: NCI-H460 lung
[3] = test system: NCI-H522 lung
[4] = test system: NCI/ADR-RES ovarian
[5] = test system: OVCAR-3 ovarian
[6] = test system: OVCAR-4 ovarian
[7] = test system: OVCAR-5 ovarian
[8] = test system: OVCAR-8 ovarian
[9] = test system: PC-3 prostate
[10] = test system: RPMI-8226 leukemia
[11] = test system: RXF 393 renal
[12] = test system: SF-268 CNS
[13] = test system: SF-295 CNS
[14] = test system: SF-539 CNS
[15] = test system: SK-MEL-2 melanoma
[16] = test system: SK-MEL-28 melanoma
[17] = test system: SK-MEL-5 melanoma
[18] = test system: SK-OV-3 ovarian
[19] = test system: SN12C renal
[20] = test system: SNB-19 CNS
[21] = test system: SNB-75 CNS
[22] = test system: SR leukemia
[23] = test system: SW-620 colon
[24] = test system: T-47D breast
[25] = test system: TK-10 renal
[26] = test system: U251 CNS
[27] = test system: UACC-257 melanoma
[28] = test system: UACC-62 melanoma
[29] = test system: UO-31 renal

Cn1cc(-c2cc(-c3cn(C)c4ccccc34)[nH]n2)c2ccccc21
23.1 µM: TGI [19]
14.8 µM: TGI [22]
44.3 µM: TGI [14]
inactive: GI50 [2] 4.48 µM | GI50 [3] 22.1 µM | GI50 [4] 27.6 µM | GI50 [5] 28.4 µM | GI50 [6] 34.9 µM | GI50 [7] > 100 µM | GI50 [8] 28.8 µM | GI50 [9] 8.11 µM | GI50 [10] 37.8 µM | GI50 [11] 14.7 µM | GI50 [12] 16 µM | GI50 [13] 17.1 µM | GI50 [14] 16.2 µM | GI50 [15] 57.5 µM | GI50 [16] > 100 µM | GI50 [17] 13.1 µM | GI50 [18] 31.6 µM | GI50 [19] 1950 nM | GI50 [20] 27 µM | GI50 [21] 18.4 µM | GI50 [22] 3.46 µM | GI50 [23] > 100 µM | GI50 [24] 79.7 µM | GI50 [25] 37.4 µM | GI50 [26] 12.9 µM | GI50 [27] 80.6 µM | GI50 [28] 16.4 µM | GI50 [29] 37.6 µM
> 100 µM: TGI [1] | TGI [2] | TGI [3] | TGI [4] | TGI [5] | TGI [6] | TGI [7] | TGI [8] | TGI [9] | TGI [10] | TGI [12] | TGI [13] | TGI [15] | TGI [16] | TGI [17] | TGI [18] | TGI [20] | TGI [23] | TGI [24] | TGI [25] | TGI [27] | TGI [28] | TGI [29]
38.7 µM: TGI [11]
46.9 µM: TGI [26]
69.9 µM: TGI [21]
